Experimental data from publication PMC11257079 (Environmental science and pollution research international, 2024).
Converted amounts (≈) assume the structure as drawn. Read-outs that look alike come from different tables or passages of the source.

How the values were obtained:
Caenorhabditis elegans = assay: whole plant or invertebrate; format: in vivo; conditions: for EC50: Caenorhabditis elegans, 48 h
Lemna minor = assay: whole plant or invertebrate; format: in vivo; conditions: for EC50 / inhibition at 1.3 µM: Lemna minor, 168 h
Hydra vulgaris = Hydra vulgaris assay; format: in vivo; conditions: 92 h, read-out: Morphology EC50
[1] = ref PubChem, NIH; cited from earlier work
[2] = at neutral pH and 20–25°C; ref PubChem, NIH; cited from earlier work
[3] = read-out: Chlorophyll Content EC50
[4] = 48 hour, 95% confidence interval in brackets
[5] = 168 hour (7 day), 95% confidence interval in brackets
[6] = 168 hour (7 day), 95% confidence interval in brackets, listed as pentachlorophenol

SMILES | EC50 (Caenorhabditis elegans; read-out: Body Length EC50) [µM] | EC50 (Caenorhabditis elegans; read-out: Nose Touch EC50) [µM] | EC50 (Caenorhabditis elegans; read-out: Survival EC50) [µM] | EC50 (Lemna minor; [3]) [µM] | EC50 (Lemna minor; read-out: Frond Number EC50) [µM] | EC50 (Lemna minor; read-out: Surface Area EC50) [µM] | Body Length EC10 (Caenorhabditis elegans; [4]) | Nose Touch EC10 (Caenorhabditis elegans; [4]) | Survival EC10 (Caenorhabditis elegans; [4]) | EC50 (Hydra vulgaris) [µM] | LogP [1] | Chlorophyll Content EC10 (Lemna minor; [5]) | Frond Number EC10 (Lemna minor; [5]) | Surface Area EC10 (Lemna minor; [5]) | Solubility in water [2] [µg/mL] | other results
Oc1c(Cl)cc(Cl)cc1Cl [2,4,6-trichlorophenol] | 180 | 250 | 230 | 4 | 3.6 | 3.5 |  |  |  |  |  |  |  |  |  | Body Length EC10 (Caenorhabditis elegans; in vivo): 0.12 (0.094–0.14) mM; Decrease in nematode survival (Caenorhabditis elegans; in vivo): 2.6 ± 4%; Impairment to behavior (nose touch response) (Caenorhabditis elegans; in vivo): 16 ± 3%; Impairment to body length (Caenorhabditis elegans; in vivo): 5.9 ± 4%; Nose Touch EC10 (Caenorhabditis elegans; in vivo): 0.12 (0.11–0.15) mM; Survival EC10 (Caenorhabditis elegans; in vivo): 0.19 (0.15–0.23) mM; inhibition at 1.3 µM (Lemna minor; read-out: Inhibition of frond number): -3 ± 7%; inhibition at 1.3 µM (Lemna minor; read-out: Inhibition of surface area): 5.8 ± 0.9%; Chlorophyll Content EC10 (Lemna minor; in vivo): 0.0011 (0.0003–0.0018) mM; Decrease in chlorophyll content (Lemna minor; in vivo): 15 ± 3%; Frond Number EC10 (Lemna minor; in vivo): 0.0019 (0.0015–0.0023) mM; Surface Area EC10 (Lemna minor; in vivo): 0.0016 (0.0011–0.0021) mM
CNC(=O)O/N=C/C(C)(C)SC [Aldicarb] | 250 | 9600 | 650 | 110 | 1260 | 11000 | 0.22 (0–0.62) mM | 0.27 (0–1.6) mM | 0.47 (0.29–0.65) mM | 4.6 | 1.1 | 0.096 (0.017–0.17) mM | 0.40 (0.28–0.52) mM | 1.0 (0–3.9) mM |  | 
CCOP(=S)(OCC)Oc1cc(C)nc(C(C)C)n1 [Diazinon] | 77 | 120 | 71 | 260 | 330 | 570 | 0.016 (0.0083–0.024) mM | 0.080 (0.068–0.093) mM | 0.057 (0.052–0.061) mM | 55 |  | 0.016 (0–0.071) mM | 0.030 (0–0.140) mM | 0.031 (0–0.12) mM |  | Chlorophyll Content EC10 (Lemna minor; 168 hour (7 day), 95% confidence interval in brackets, listed as diazinon): 0.0016 mM
O=C(O)CNCP(=O)(O)O [Glyphosate] | 250 | 1000 | 360 | 94 | 57 | 60 | 0.22 (0.13–0.31) mM | 0.15 NA mM | 0.21 NA mM | 160 | −4.6 | 0.054 (0–0.30) mM | 0.034 (0.022–0.046) mM | 0.053 (0.036–0.071) mM | 1050 (≈ 6.21 mM) | 
Cl[C@H]1[C@H](Cl)[C@@H](Cl)[C@@H](Cl)[C@H](Cl)[C@H]1Cl [Lindane] | 540 | 140 | 38 | 6.1 | 7.3 | 11 | 0.048 (0–0.21) mM | 0.020 (0–0.051) mM | 0.055 (0–0.45) mM | 22 | 3.8 | 0.0039 (0.0016–0.0061) mM | 0.0048 (0.0036–0.0060) mM | 0.0040 (0.0021–0.0059) mM | 2 (≈ 0.00688 mM) | Chlorophyll Content EC10 (Lemna minor; 168 hour (7 day), 95% confidence interval in brackets, listed as lindane): 0.0039 mM
CON(C)C(=O)Nc1ccc(Cl)c(Cl)c1 [Linuron] | 220 | 150 | 650 | 0.15 | 0.18 | 0.18 | 0.036 (0.0030–0.070) mM | 0.056 (0.029–0.083) mM | 0.29 (0–1.3) mM | 63 |  | 0.00010 (0.000069–0.00013) mM | 0.00015 (0.00013–0.00016) mM | 0.00014 (0.00013–0.00016) mM |  | Chlorophyll Content EC10 (Lemna minor; 168 hour (7 day), 95% confidence interval in brackets, listed as linuron): 0.00010 mM
C[n+]1ccc(-c2cc[n+](C)cc2)cc1 [Paraquat] | 1700 | 860 | 50 | 0.16 | 0.12 | 0.11 | 0.086 (0–0.63) mM | 0.50 (0–1.3) mM | 0.044 (0–0.21) mM | 44 | 1.7 | 0.00014 (0.00012–0.00016) mM | 0.000090 (0.000080–0.000010) mM | 0.000098 (0.000060–0.000013) mM | >620000 | 
Oc1c(Cl)c(Cl)c(Cl)c(Cl)c1Cl [Pentachlorophenol] | 180 | 190 | 170 | 2.3 | 8.4 | 88 | 0.21 (0–0.98) mM | 0.17 NA mM | 0.11 (0.099–0.13) mM | 1.9 |  | 0.00073 (0.00027–0.0012) mM | 0.0053 (0.0037–0.0070) mM | 0.0086 (0–0.031) mM |  | Body Length EC10 (Caenorhabditis elegans; 48 hour, 95% confidence interval in brackets, listed as pentachlorophenol): 0.21 mM; Chlorophyll Content EC10 (Lemna minor; [6]): 0.00073 mM; Frond Number EC10 (Lemna minor; [6]): 0.0053 mM; Surface Area EC10 (Lemna minor; [6]): 0.0086 mM
CCCN(CCC)c1c([N+](=O)[O-])cc(C(F)(F)F)cc1[N+](=O)[O-] [Trifluralin] | 180 | 220 | 140 | 4.6 | 1.8 | 1.4 | 0.19 (0–1.2) mM | 0.19 (0–0.59) mM | 0.13 (0.13–0.14) mM | 10 |  | 0.000042 (0–0.00015) mM | 0.00037 (0–0.00075) mM | 0.00062 (0–0.0014) mM |  | Nose Touch EC10 (Caenorhabditis elegans; 48 hour, 95% confidence interval in brackets, listed as trifluralin): 0.19 mM; Chlorophyll Content EC10 (Lemna minor; 168 hour (7 day), 95% confidence interval in brackets, listed as trifluralin): 0.000042 mM
